From patent publication US8580965B2, “Substituted sulfonamide compounds” (Gruenenthal GmbH, priority 2006, dated 2013)
Counter-ions that a name gives are not always drawn.

Legend:
[1] = target: T1, human B1R receptor (bradykinin 1 receptor) (Homo sapiens, UniProt P46663); test: FLIPR Ca2+ assay (Fluo-4) on CHO K1 cells stably transfected with the human B1R gene; % activation and % inhibition at 10 μM; assay type: cell-based; conditions: CHO-K1, test substance 10 μM; CHO K1 hB1R cells; Ca2+ inflow after 0.5 nM Lys-Des-Arg9-bradykinin; read-out: B1R antagonism, human [10 μM] % inhibition
T1 construct: host or cells: CHO K1 cells (hB1R cells)
T1 sequence (P46663 1-353): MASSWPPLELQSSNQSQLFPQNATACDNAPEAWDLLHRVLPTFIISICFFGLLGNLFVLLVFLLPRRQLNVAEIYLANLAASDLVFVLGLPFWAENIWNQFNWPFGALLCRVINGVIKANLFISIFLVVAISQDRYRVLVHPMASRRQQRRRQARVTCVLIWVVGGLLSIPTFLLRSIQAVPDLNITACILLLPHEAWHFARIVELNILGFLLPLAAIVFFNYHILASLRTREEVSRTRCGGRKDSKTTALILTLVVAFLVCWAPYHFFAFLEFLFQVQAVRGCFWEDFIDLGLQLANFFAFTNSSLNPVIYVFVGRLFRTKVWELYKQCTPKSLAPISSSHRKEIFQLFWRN
Summary of the method: (§1)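 CHO K1 cells stably expressing human or rat B1R, Fluo-4 loaded, read by FLIPR (peak fluorescence). Compound at 10 µM first gives % activation versus agonist; after 10 min, agonist (human: 0.5 nM Lys-Des-Arg9-bradykinin; rat: 100 nM Des-Arg9-bradykinin) gives % inhibition relative to maximal inhibition.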

[2] = target: T2, B1R receptor of the rat (bradykinin 1 receptor) (Rattus norvegicus, UniProt P97583); test: FLIPR Ca2+ assay (Fluo-4) on CHO K1 cells stably transfected with the B1R gene of the rat; % activation and % inhibition at 10 μM; assay type: cell-based; conditions: CHO-K1, test substance 10 μM; CHO K1 rB1R cells; Ca2+ inflow after 100 nM Des-Arg9-bradykinin; read-out: B1R antagonism, rat [10 μM] % inhibition
T2 construct: host or cells: CHO K1 cells (rB1R cells)
T2 sequence (P97583 1-337): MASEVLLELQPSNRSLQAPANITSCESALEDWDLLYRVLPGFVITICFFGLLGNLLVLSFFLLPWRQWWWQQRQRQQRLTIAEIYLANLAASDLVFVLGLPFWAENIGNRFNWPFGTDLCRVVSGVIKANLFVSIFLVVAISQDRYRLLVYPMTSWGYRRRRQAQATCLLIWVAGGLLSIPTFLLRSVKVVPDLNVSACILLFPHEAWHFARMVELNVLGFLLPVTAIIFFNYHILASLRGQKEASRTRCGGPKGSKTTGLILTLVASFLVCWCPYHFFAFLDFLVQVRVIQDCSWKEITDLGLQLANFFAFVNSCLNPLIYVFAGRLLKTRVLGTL
Summary of the method: as §1

| SMILES | inhibition at 10 µM [1] | inhibition at 10 µM [2] |
| --- | --- | --- |
| Cc1cc(C)c(S(=O)(=O)N2CCC(OCC(=O)N3CCC(O)(c4ccccn4)CC3)C2)c(C)c1 (stereo not shown) [Example 30, 1-(4′-hydroxy-3′,4′,5′,6′-tetrahydro-2′H-[2,4′]bipyridinyl-1′-yl)-2-[1-(2,4,6-trimethyl-phenylsulfonyl)-pyrrolidin-3-yloxy]-ethanone] | 6.86% | 17.4% |
| COc1cc(C)c(S(=O)(=O)N(C)CCOCCC(=O)N2CCC(O)(c3ccccc3)CC2)c(C)c1 [Example 276, N-(2-(3-(4-hydroxy-4-phenylpiperidin-1-yl)-3-oxopropoxy)ethyl)-4-methoxy-N,2,6-trimethylphenylsulfonamide] | 70.7% | 88.3% |
| O=C(COCC1CCCCN1S(=O)(=O)c1ccc(C(F)(F)F)cc1)N1CCC(O)(c2ccc(Cl)cc2)CC1 (stereo not shown) [Example 156, 1-(4-(4-chlorophenyl)-4-hydroxypiperidin-1-yl)-2-((1-(4-(trifluoromethyl)phenylsulfonyl)piperidin-2-yl)methoxy)ethanone] | 20.9% | 70.3% |
| COc1cc(C)c(S(=O)(=O)N(CCOCC(=O)N2CCC(O)(c3ccc(Cl)cc3)CC2)CC(C)C)c(C)c1C [Example 209, N-(2-(2-(4-(4-chlorophenyl)-4-hydroxypiperidin-1-yl)-2-oxoethoxy)ethyl)-N-isobutyl-4-methoxy-2,3,6-trimethylphenylsulfonamide] | 105% | 100% |
| O=C(COC1CCCCC1N(Cc1ccccc1)S(=O)(=O)c1ccc(Cl)c(Cl)c1)N1CCC(O)(Cc2ccccc2)CC1 (stereo not shown) [Example 84, N-benzyl-N-{2-[2-(4-benzyl-4-hydroxy-piperidin-1-yl)-2-oxo-ethoxy]-cyclohexyl}-3,4-dichloro-phenylsulfonamide] | -0.61% | -9.47% |
| O=C(COCC1Cc2ccccc2CN1S(=O)(=O)c1ccc(Cl)cc1Cl)N1CCC(O)(c2ccccc2)CC1 (stereo not shown) [Example 80, 2-((2-(2,4-dichlorophenylsulfonyl)-1,2,3,4-tetrahydroisoquinolin-3-yl)methoxy)-1-(4-hydroxy-4-phenylpiperidin-1-yl)ethanone] | 62.3% | 82.5% |
| O=C(COCC1Cc2ccccc2N1S(=O)(=O)c1ccc(Cl)c(Cl)c1)N1CCC(O)(c2cccnc2)CC1 (stereo not shown) [Example 100, 2-[1-(3,4-dichloro-phenylsulfonyl)-2,3-dihydro-1H-indol-2-ylmethoxy]-1-(4′-hydroxy-3′,4′,5′,6′-tetrahydro-2′H-[3,4′]bipyridinyl-1′-yl)-ethanone] | -6.26% | -0.67% |
| O=C(COCC1CCCCN1S(=O)(=O)c1csc2ccccc12)N1CCC(O)(Cc2ccccc2)CC1 (stereo not shown) [Example 274, 2-((1-(benzo[b]thiophen-3-ylsulfonyl)piperidin-2-yl)methoxy)-1-(4-benzyl-4-hydroxypiperidin-1-yl)ethanone] | 96.4% | 76% |
| COc1cc(C)c(S(=O)(=O)N2CCCCC2COCC(=O)N2CCC(O)(c3cccc(F)c3)CC2)c(C)c1 (stereo not shown) [Example 142, 1-(4-(3-fluorophenyl)-4-hydroxypiperidin-1-yl)-2-((1-(4-methoxy-2,6-dimethylphenylsulfonyl)piperidin-2-yl)methoxy)ethanone] | 103% | 100% |
| O=C(COCC1Cc2ccccc2CN1S(=O)(=O)c1ccc(Cl)c(Cl)c1)N1CCC(O)(c2cccnc2)CC1 (stereo not shown) [Example 91, 2-[2-(3,4-dichloro-phenylsulfonyl)-1,2,3,4-tetrahydro-isoquinolin-3-ylmethoxy]-1-(4′-hydroxy-3′,4′,5′,6′-tetrahydro-2′H-[3,4′]bipyridinyl-1′-yl)-ethanone] | 93.7% | 93.7% |
| Cc1cc(C)c(S(=O)(=O)N2CCCCC2COCC(=O)N2CCC(O)(Cc3ccccc3)CC2)c(C)c1 (stereo not shown) [Example 67, 1-(4-benzyl-4-hydroxy-piperidin-1-yl)-2-[1-(2,4,6-trimethyl-phenylsulfonyl)-piperidin-2-ylmethoxy]-ethanone] | 55.4% | 86.5% |
| COc1cc(C)c(S(=O)(=O)N(C)CCOCC(=O)N2CCC(O)(Cc3cccnc3)CC2)c(C)c1 [Example 279, N-(2-(2-(4-hydroxy-4-(pyridin-3-ylmethyl)piperidin-1-yl)-2-oxoethoxy)ethyl)-4-methoxy-N,2,6-trimethylphenylsulfonamide hydrochloride] | 103% | 105% |
| CN(CCOCC(=O)N1CCC(O)(c2ccc(Cl)cc2)CC1)S(=O)(=O)c1cc(F)cc(F)c1 [Example 93, N-(2-(2-(4-(4-chlorophenyl)-4-hydroxypiperidin-1-yl)-2-oxoethoxy)ethyl)-3,5-difluoro-N-methylphenylsulfonamide] | -12.1% | 6.49% |
| O=C(COCC1CCCCN1S(=O)(=O)c1cccc2ccccc12)N1CCC(O)(c2ccc(Cl)cc2)CC1 (stereo not shown) [Example 63, 1-(4-(4-chlorophenyl)-4-hydroxypiperidin-1-yl)-2-((1-(naphthalen-1-ylsulfonyl)piperidin-2-yl)methoxy)ethanone] | 84.8% | 91.8% |
| O=C(COC1CCCCC1N(Cc1ccccc1)S(=O)(=O)c1ccc(Cl)c(Cl)c1)N1CCC(O)(c2ccc(Cl)cc2)CC1 (stereo not shown) [Example 83, N-benzyl-3,4-dichloro-N-(2-(2-(4-(4-chlorophenyl)-4-hydroxypiperidin-1-yl)-2-oxoethoxy)cyclohexyl)phenylsulfonamide] | 11.3% | -12.6% |
| O=C(COC1CCCN(S(=O)(=O)c2c(Cl)cc(Cl)cc2Cl)C1)N1CCC(O)(Cc2ccccc2)CC1 (stereo not shown) [Example 249, 1-(4-benzyl-4-hydroxypiperidin-1-yl)-2-(1-(2,4,6-trichlorophenylsulfonyl)piperidin-3-yloxy)ethanone] | 70.8% | 87.3% |
| COc1cc(C)c(S(=O)(=O)N(C)CCOCC(=O)N2CCC(O)(c3ccncc3)CC2)c(C)c1 [Example 88, N-{2-[2-(4-hydroxy-3,4,5,6-tetrahydro-2H-[4,4′]bipyridinyl-1-yl)-2-oxo-ethoxy]-ethyl}-4-methoxy-2,6,N-trimethyl-phenylsulfonamide] | 102% | 103% |
| CN(CCOCC(=O)N1CCC(O)(c2ccc(Cl)c(C(F)(F)F)c2)CC1)S(=O)(=O)c1cc(Cl)sc1Cl [Example 263, 2,5-dichloro-N-(2-(2-(4-(4-chloro-3-(trifluoromethyl)phenyl)-4-hydroxypiperidin-1-yl)-2-oxoethoxy)ethyl)-N-methylthiophene-3-sulfonamide] | 42.9% | 70.5% |
| Cc1cc(C)c(S(=O)(=O)N2CCCCC2COCC(=O)N2CCC(O)(c3ccccn3)CC2)c(C)c1 (stereo not shown) [Example 94, 1-(4′-hydroxy-3′,4′,5′,6′-tetrahydro-2′H-[2,4′]bipyridinyl-1′-yl)-2-[1-(2,4,6-trimethyl-phenylsulfonyl)-piperidin-2-ylmethoxy]-ethanone] | 104% | 103% |
| COc1cc(C)c(S(=O)(=O)N2CCCCC2COCC(=O)N2CCC(O)(Cc3ccccc3)CC2)c(C)c1 (stereo not shown) [Example 245, 1-(4-benzyl-4-hydroxypiperidin-1-yl)-2-((1-(4-methoxy-2,6-dimethylphenylsulfonyl)piperidin-2-yl)methoxy)ethanone] | 99.8% | 97.7% |
| COc1cc(C)c(S(=O)(=O)N(CCOCC(=O)N2CCC(O)(c3cccnc3)CC2)CC2CC2)c(C)c1C [Example 240, N-(cyclopropylmethyl)-N-(2-(2-(4-hydroxy-4-(pyridin-3-yl)piperidin-1-yl)-2-oxoethoxy)ethyl)-4-methoxy-2,3,6-trimethylphenylsulfonamide] | 103% | 99.4% |
| Cc1cc(S(=O)(=O)N2CCCCC2CCC(=O)N2CCC(O)(c3cccnc3)CC2)c(C)cc1Cl (stereo not shown) [Example 111, 3-(1-(4-chloro-2,5-dimethylphenylsulfonyl)piperidin-2-yl)-1-(4-hydroxy-4-(pyridin-3-yl)piperidin-1-yl)propan-1-one hydrochloride] | 97.8% | 85.9% |
| COc1cc(C)c(S(=O)(=O)N2CCCC2COCC(=O)N2CCC(O)(c3ccccc3)CC2)c(C)c1 (stereo not shown) [Example 215, 1-(4-hydroxy-4-phenylpiperidin-1-yl)-2-((1-(4-methoxy-2,6-dimethylphenylsulfonyl)pyrrolidin-2-yl)methoxy)ethanone] | 104% | 102% |
